Reference: patent publication US6008239A, “Triazole derivative or salt thereof” (SSP Co., Ltd., priority 1997, dated 1999)
In brackets after ≈: the same amount, converted by molar mass.

Key:
[1] = system: C. albicans IFM 40009; assay: Antifungal Activity Against Candida albicans (In vivo), survival of infected mice; design: species or system Candida albicans in male ICR (CRJ: CD-1) mice; details: i.v. C. albicans infection, oral 1.25 mg/kg, four times in total; for Survival days: 14 days observation, Kaplan-Meier (Cox mantel test), ***: p < 0.001, control 4.1; for Survival mice on Day 14: survivors/total on day 14, control 0/10
Protocol: Test 4: Antifungal Activity Against Candida albicans (In vivo)
After 4-week-old, male, ICR (CRJ: CD-1) mice were fasted for 6 hours, C. albicans IFM 40009 was inoculated to a tail vein of each of the mice to give an amount of 3.0×10^6 cells/mouse, whereby infection was caused. A control group consisted of 10 mice, while a medicament-administered group consisted of 5 mice. The medicament was orally administered one hour after the inoculation of the fungus and then consecutively once a day 24 hours after the inoculation, four times in total, at 1.25 mg/kg each. The survival condition during 14 days after the infection was compared. In addition, the survival days of the control group and the medicament-administered group were detected by the Kaplan-Meier method (Cox mantel test).

[2] = system: A. flavus IFM 41935; assay: Antifungal Activity Against Aspergillus flavus (In vitro); assay type: cell-based; details: IFM41935, RPMI 1640 with 0.165M MOPS, pH 7, 35° C., 24 hours
Protocol: Test 3: Antifungal Activity Against Aspergillus flavus (In vitro)
(§1) They were incubated at 35° C. for 24 hours. After incubation, the minimum medicament concentration permitting the apparent suppression of mycerial type growth compared with that of a medicament-free control was determined as an MIC value (μg/ml).

[3] = system: A. fumigatus IFM 40808; assay: Antifungal Activity Against Aspergillus fumigatus (In vitro); assay type: cell-based; details: IFM40808, RPMI 1640 with 0.165M MOPS, pH 7, 35° C., 24 hours
Protocol: Test 2: Antifungal Activity Against Aspergillus fumigatus (In vitro)
as §1

[4] = system: C. albicans ATCC 44859; assay: Antifungal Activity Against Candida albicans (In vitro); assay type: cell-based; details: ATCC44859, MEM + 10% fetal bovine serum, 37° C., 24 hours, CO2 incubator, read-out: Terminal point (minimum medicament concentration permitting apparent suppression of mycerial type growth)
Protocol: Test 1: Antifungal Activity Against Candida albicans (In vitro)
They were incubated at 37° C. for 24 hours in a CO2 gas incubator. After incubation, a morphological change of C. albicans was observed under an inverted microscope. The minimum medicament concentration permitting the apparent suppression of mycerial type growth compared with that of a medicament-free control was determined as a terminal point (ng/ml).

| MIC [4] | Structure (SMILES) | Survival days [1] | Survival mice on Day 14 [1] | MIC [2] | MIC [3] |
| --- | --- | --- | --- | --- | --- |
|  | COC(Cn1cncn1)(c1ccc(F)cc1F)C(F)(F)S(=O)(=O)CCOC(C)=O (stereo not drawn) [Example 12, 2-{[2-(2,4-Difluorophenyl)-1,1-difluoro-2-methoxy-3-(1H-1,2,4-triazol-1-yl)propyl]sulfonyl}ethyl acetate] | 14.0 days | 4/5 |  |  |
|  | OC(Cn1cncn1)(Cn1cncn1)c1ccc(F)cc1F [Fluconazole, reference compound] | 9.6 days | 0/5 | > 128 µg/mL | > 128 µg/mL |
|  | CCOC(Cn1cncn1)(c1ccc(F)cc1F)C(F)(F)S(=O)(=O)CCO (stereo not drawn) [Example 10, 2-{[2-(2,4-Difluorophenyl)-2-ethoxy-1,1-difluoro-3-(1H-1,2,4-triazol-1-yl)propyl]sulfonyl}-1-ethanol] | 13.4 days | 4/5 |  |  |
| 0.0625 µg/mL | COCCSC(F)(F)C(Cn1cncn1)(OC)c1ccc(F)cc1F (stereo not drawn) [Example 1, 1-{2-(2,4-difluorophenyl)-3,3-difluoro-2-methoxy-3-[(2-methoxyethyl)thio]propyl}-1H-1,2,4-triazole] |  |  | > 64 µg/mL | 64 µg/mL (≈ 169 µM) |
|  | COC(Cn1cncn1)(c1ccc(F)cc1F)C(F)(F)S(=O)(=O)CCO (stereo not drawn) [Example 9, 2-{[2-(2,4-Difluorophenyl)-1,1-difluoro-2-methoxy-3-(1H-1,2,4-triazol-1-yl)propyl]sulfonyl}-1-ethanol] | 14.0 days | 5/5 |  |  |
|  | COCCS(=O)(=O)C(F)(F)C(Cn1cncn1)(OC)c1ccc(F)cc1F (stereo not drawn) [Example 7, 1-{2-(2,4-difluorophenyl)-3,3-difluoro-2-methoxy-3-[(2-methoxyethyl)sulfonyl]propyl}-1H-1,2,4-triazole] | 14.0 days | 5/5 |  |  |
